Literature values as cited in PMC5944028, “Nonclinical and clinical pharmacological characterization of the potent and selective cathepsin K inhibitor MIV-711” (Journal of Translational Medicine, 2018).

Columns and labels:
[1] = human, weekly dose of 50 mg, cited from earlier work
urinary CTX-II = details: postmenopausal women with osteoporosis, 12 months; cited from earlier work

SMILES: CC(C)(F)C[C@H](N[C@@H](c1ccc(-c2ccc(S(C)(=O)=O)cc2)cc1)C(F)(F)F)C(=O)NC1(C#N)CC1 [odanacatib]
- mean plasma AUC0–24h [1]: 6 to 7 µM·h
- IC50 ([1]; read-out: trough plasma IC50): 50 to 60 nM

SMILES: C[C@@H]1CS/C(=N\NC(=O)C(=O)[C@@H](NC(=O)C2CCCCCC2)C2CCOCC2)N1C [ONO-5334, reference compound]
- Reduction of urinary CTX-II (urinary CTX-II): 50%
